# Reference: patent US9408387B2, “Safening 6-amino-2-(substituted phenyl)-5-substituted-4-pyrimidinecarboxylate herbicide injury on cereal crops” (Dow AgroSciences LLC, priority 2009, dated 2016)
# Read-outs that look alike come from different tables or passages of the source.
# Assays:
# Assay type in all cases: in vivo
# [1] = test system: spring wheat (Triticum aestivum L; TRZAS); assay: Postemergence herbicidal safening in cereal crops, greenhouse, visual injury: spring wheat; settings: Triticum aestivum, post-emergence, 480 h, read-out: TRZAS Ob (visual injury); for pest or weed control at 35 g/ha: herbicide alone 35 g ae/ha
# Protocol: (§1) Evaluation of Postemergence Herbicidal Safening in Cereal Crops
# (§2) Seeds of the desired test plant species were planted in Sun Gro MetroMix® 306 planting mixture, which typically has a pH of 6.0 to 6.8 and an organic matter content of about 30 percent, in plastic pots with a surface area of 103.2 square centimeters (cm^2). When required to ensure good germination and healthy plants, a fungicide treatment and/or other chemical or physical treatment was applied. The plants were grown for 7-36 days (d) in a greenhouse with an approximate 14-hour (h) photoperiod which was maintained at about 18° C. during the day and 17° C. during the night. Nutrients and water were added on a regular basis and supplemental lighting was provided with overhead metal halide 1000-Watt lamps as necessary. The plants were employed for testing when they reached the second or third true leaf stage.
# (§3) Treatments consisted of the acids or esters of compounds 1-10 and cloquintocet-mexyl (CQC-M), fenchlorazole-ethyl, mefenpyr-diethyl alone and in combination. Weighed amounts of acid or methyl esters of the compounds of formula (I) were dissolved in a volume of 97:3 v/v acetone/dimethylsulfoxide (DMSO) to obtain concentrated solutions. […] The concentrated solutions of the test compound were diluted with the addition of an aqueous mixture containing acetone, water, isopropyl alcohol, DMSO, Agri-Dex crop oil concentrate, and Triton® X-77 surfactant in a 64.7:26.0:6.7:2.0:0.7:0.01 v/v ratio. Test compounds were diluted to the appropriate application rate with a dilution solution which was prepared by mixing the appropriate volume of 97:3 v/v acetone/DMSO and the appropriate volume of an aqueous mixture containing acetone, water, isopropyl alcohol, DMSO, Agri-Dex crop oil concentrate, and Triton® X-77 surfactant in a 64.7:26.0:6.7:2.0:0.7:0.01 v/v ratio. Compound requirements are based upon a 12 mL application volume at a rate of 187 liters per hectare (L/ha). The concentrated solutions of the safener were prepared following the same procedure. Weighed amounts of safener were dissolved in a volume of 97:3 v/v acetone/DMSO to obtain concentrated safener solutions.
# (§4) Spray solutions of the herbicide safener and test compound mixtures were prepared by adding the concentrated solutions to the appropriate amount of dilution solution to form 12 mL spray solution with active ingredients in combinations.
# (§5) Formulated compounds were applied to the plant material with an overhead Mandel track sprayer equipped with 8002E nozzles calibrated to deliver 187 L/ha over an application area of 0.503 square meters (m^2) at a spray height of 18 inches (43 centimeters (cm)) above average plant canopy. Control plants were sprayed in the same manner with the solvent blank.
# (§6) The treated plants and control plants were placed in a greenhouse as described above and watered by sub-irrigation to prevent wash-off of the test compounds. After 20-22 d, the condition of the test plants as compared with that of the control plants was determined visually and scored on a scale of 0 to 100 percent where 0 corresponds to no injury and 100 corresponds to complete kill.
# (§7) Colby's equation was used to determine the herbicidal effects expected from the mixtures (Colby, S. R. Calculation of the synergistic and antagonistic response of herbicide combinations. Weeds 1967, 15, 20-22.).
# (§8) The following equation was used to calculate the expected activity of mixtures containing two active ingredients, A and B: Expected=A+B−(A×B/100)
# (§9) A=observed efficacy of active ingredient A at the same concentration as used in the mixture.
# (§10) B=observed efficacy of active ingredient B at the same concentration as used in the mixture.
# [2] = test system: lamb's-quarters (Chenopodium album L; CHEAL); assay: Postemergence herbicidal activity, greenhouse, visual injury: lamb's-quarters; settings: 20-22 d
# Protocol: as §1, §2, §3
# Spray solutions of the herbicide safener and test compound mixtures were prepared by adding the concentrated solutions to the appropriate amount of dilution solution to form 12 mL spray solution with active ingredients in combinations. […]
# as §6, with “kill. […]” for “kill.”
# [3] = test system: purple deadnettle (Lamium purpureum L; LAMPU); assay: Postemergence herbicidal activity, greenhouse, visual injury: purple deadnettle; settings: Lamium purpureum, post-emergence, 480 h, read-out: LAMPU Ob (visual injury)
# Protocol: as §1, §2, §3, §4, §5, §6, §7, §8, §9, §10
# [4] = test system: spring barley (Hordeum vulgare L; HORVS); assay: Postemergence herbicidal safening in cereal crops, greenhouse, visual injury: spring barley; settings: Hordeum vulgare, post-emergence, 480 h, read-out: HORVS Ob (visual injury); for pest or weed control at 35 g/ha: herbicide alone 35 g ae/ha
# Protocol: as §1, §2, §3, §4, §5, §6, §7, §8, §9, §10
# [5] = test system: kochia (Kochia scoparia L; KCHSC); assay: Postemergence herbicidal activity, greenhouse, visual injury: kochia; settings: 20-22 d
# Protocol: as §1, §2, §3, §4, §5, §6, §7, §8, §9, §10
# [6] = test system: corn poppy (Papaver rhoeas L; PAPRH); assay: Postemergence herbicidal activity, greenhouse, visual injury: corn poppy; settings: 20-22 d
# Protocol: as §1, §2, §3, §4, §5, §6, §7, §8, §9, §10
# [7] = test system: winter barley (Hordeum vulgare L; HORVW); assay: Postemergence herbicidal safening in cereal crops, greenhouse, visual injury: winter barley; settings: herbicide alone 8.75 g/ha; 20-22 d
# Protocol: as §1, §2, §3, §4, §5, §6, §7, §8, §9, §10
# [8] = test system: winter wheat (Triticum aestivum L; TRZAW); assay: Postemergence herbicidal safening in cereal crops, greenhouse, visual injury: winter wheat; settings: herbicide alone 8.75 g/ha; 20-22 d
# Protocol: as §1, §2, §3, §4, §5, §6, §7, §8, §9, §10
# [9] = test system: durum wheat (Triticum durum L; TRZDU); assay: Postemergence herbicidal safening in cereal crops, greenhouse, visual injury: durum wheat; settings: herbicide alone 8.75 g/ha; 20-22 d
# Protocol: as §1, §2, §3, §4, §5, §6, §7, §8, §9, §10
# [10] = herbicide alone 70 g/ha, 20-22 d
# [11] = herbicide alone 140 g/ha, 20-22 d
# [12] = herbicide alone 8.75 g/ha, 20-22 d
structure (smiles),measurement,setting,value
"CCOC(=O)C1=NN(c2ccc(Cl)cc2Cl)C(C)(C(=O)OCC)C1 (stereo not shown) [Mefenpyr-diethyl, mefenpyr-diethyl, reference compound]",pest or weed control at 140 g/ha,[1],0%
same,CHEAL Ob (visual injury),[2]; safener alone 140 g ae/ha,0%
same,pest or weed control at 140 g/ha,[3],0%
same,pest or weed control at 140 g/ha,[4],0%
"COc1c(N)nc(-c2ccc(C)cc2)nc1C(=O)O [Compound 6, 6-amino-2-p-tolyl-5-methoxypyrimidine-4-carboxylic acid]",pest or weed control at 35 g/ha,[1]; 20-22 d,35%
same,pest or weed control at 70 g/ha,[1]; [10],20%
same,pest or weed control at 140 g/ha,[1]; [11],55%
same,CHEAL Ob (visual injury),[2]; herbicide alone 35 g ae/ha,83%
same,KCHSC Ob (visual injury),[5]; herbicide alone 70 g/ha,60%
same,KCHSC Ob (visual injury),[5]; herbicide alone 140 g/ha,70%
same,pest or weed control at 70 g/ha,[3]; [10],75%
same,pest or weed control at 140 g/ha,[3]; [11],80%
same,pest or weed control at 35 g/ha,[4]; 20-22 d,25%
same,pest or weed control at 70 g/ha,[4]; [10],20%
same,pest or weed control at 140 g/ha,[4]; [11],40%
same,PAPRH Ob (visual injury),[6]; herbicide alone 70 g/ha,97%
same,PAPRH Ob (visual injury),[6]; herbicide alone 140 g/ha,100%
"COc1c(N)nc(-c2ccc(C(F)(F)F)cc2)nc1C(=O)O [Compound 3, 6-amino-2-(4-trifluoromethylphenyl)-5-methoxypyrimidine-4-carboxylic acid]",HORVW Ob (visual injury),[7],8%
same,pest or weed control at 8.75 g/ha,[1]; [12],15%
same,pest or weed control at 35 g/ha,[1]; 20-22 d,75%
same,TRZAW Ob (visual injury),[8],17%
same,CHEAL Ob (visual injury),[2]; herbicide alone 35 g ae/ha,10%
same,pest or weed control at 8.75 g/ha,[4]; [12],13%
same,pest or weed control at 35 g/ha,[4]; 20-22 d,50%
same,TRZDU Ob (visual injury),[9],7%
